{"source": "patent US20230114728A1", "about": "(Venatorx Pharmaceuticals, Inc., priority 2019, published 2023)", "assay_type_in_all_cases": "cell-based", "key": {"[1]": {"tested_on": "P. aeruginosa (ΔmexAB-oprM)", "assay": "Broth microdilution MIC in CAMHB", "details": "Pseudomonas aeruginosa, read-out: Minimum Inhibitory Concentration, P. aeruginosa ΔmexAB-OprM", "summary_of_the_method": "(§1)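 Per CLSI broth microdilution, colonies were grown 3-5 h at 37° C in cation-adjusted Mueller Hinton broth, then diluted to a starting inoculum of 2-8×10^5 CFU/mL against 2-fold serial compound dilutions. Plates were incubated 16-20 h at 37° C, and MIC was read visually as the lowest concentration with no growth.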"}, "[2]": {"tested_on": "E. coli ATCC 25922", "assay": "Broth microdilution MIC in CAMHB", "details": "Escherichia coli, ATCC25922; E. coli ATCC 25922; MHB; read-out: Minimum Inhibitory Concentration, E. coli 25922", "summary_of_the_method": "as §1"}, "[3]": {"tested_on": "E. coli D22", "assay": "Broth microdilution MIC in CAMHB", "details": "Escherichia coli; E. coli D22 (hyper-permeable); MHB; read-out: Minimum Inhibitory Concentration, E. coli D22", "summary_of_the_method": "as §1"}, "[4]": {"tested_on": "E. coli AG100A", "assay": "Broth microdilution MIC in CAMHB", "details": "Escherichia coli, read-out: Minimum Inhibitory Concentration, E. coli AG100A", "summary_of_the_method": "as §1"}, "[5]": {"tested_on": "N. gonorrhoeae H041", "assay": "Liquid broth MIC in Fastidious broth", "details": "Neisseria gonorrhoeae, H041, read-out: Minimum Inhibitory Concentration, N. gonorrhoeae H041", "summary_of_the_method": "(§2)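 Broth microdilution in Fastidious broth with 2-fold compound series; inoculum from 24 h chocolate agar colonies, 5×10^5 CFU/mL start. Incubated ~24 hours at 36° C, 5% CO2. MIC read visually as lowest concentration giving <10% growth versus full-growth wells; strains carry mosaic PBP2.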"}, "[6]": {"tested_on": "N. gonorrhoeae WHO K", "assay": "Liquid broth MIC in Fastidious broth", "details": "Neisseria gonorrhoeae, read-out: Minimum Inhibitory Concentration, N. gonorrhoeae WHO K", "summary_of_the_method": "as §2"}, "[7]": {"tested_on": "N. gonorrhoeae ATCC 49226", "assay": "Liquid broth MIC in Fastidious broth", "details": "Neisseria gonorrhoeae, ATCC49226; N. gonorrhoeae strain ATCC 49226; Fastidious broth; read-out: Minimum Inhibitory Concentration, N. gonorrhoeae ATCC 49226", "summary_of_the_method": "(§3)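 Colonies were swabbed from chocolate agar after 24 h growth and standardised by optical density at 600 nm. Compounds were serially diluted twofold in Fastidious broth, and bacteria added to give 5×10^5 CFU/mL. After about 24 h at 36 °C in 5% CO2, the lowest concentration allowing under 10% growth was taken as MIC.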"}, "[8]": {"tested_on": "N. gonorrhoeae FA1090", "assay": "Liquid broth MIC in Fastidious broth", "details": "Neisseria gonorrhoeae; N. gonorrhoeae strain FA1090; Fastidious broth; read-out: Minimum Inhibitory Concentration, N. gonorrhoeae FA1090", "summary_of_the_method": "as §3"}, "[9]": {"tested_on": "N. gonorrhoeae WHO G", "assay": "Liquid broth MIC in Fastidious broth", "details": "Neisseria gonorrhoeae; N. gonorrhoeae strain WHO G; Fastidious broth; read-out: Minimum Inhibitory Concentration, N. gonorrhoeae WHO G", "summary_of_the_method": "as §3"}, "[10]": {"tested_on": "N. gonorrhoeae WHO L", "assay": "Liquid broth MIC in Fastidious broth", "details": "Neisseria gonorrhoeae; N. gonorrhoeae strain WHO L; Fastidious broth; read-out: Minimum Inhibitory Concentration, N. gonorrhoeae WHO L", "summary_of_the_method": "as §3"}}}
{"compound": "CCN1CCN(C(=O)NC(C(=O)N[C@H]2Cc3cccc(C(=O)O)c3OB2O)c2cccc(N)c2)C(=O)C1=O", "note": "(stereo partly drawn) [Example 72, (3R)-3-(2-(3-aminophenyl)-2-(4-ethyl-2,3-dioxopiperazine-1-carboxamido)acetamido)-2-hydroxy-3,4-dihydro-2H-benzo[e][1,2]oxaborinine-8-carboxylic acid]", "values": [{"measurement": "MIC", "setting": "[1]", "value": "8 to 16", "unit": "µg/mL"}, {"measurement": "MIC", "setting": "[2]", "value": "32 to 64", "unit": "µg/mL"}, {"measurement": "MIC", "setting": "[3]", "value": "2 to 4", "unit": "µg/mL"}, {"measurement": "MIC", "setting": "[4]", "value": "2 to 4", "unit": "µg/mL"}, {"measurement": "MIC", "setting": "[5]", "value": "> 64", "unit": "µg/mL"}, {"measurement": "MIC", "setting": "[6]", "value": "> 64", "unit": "µg/mL"}, {"measurement": "MIC", "setting": "[7]", "value": "4 to 8", "unit": "µg/mL"}, {"measurement": "MIC", "setting": "[8]", "value": "0.25 to 0.5", "unit": "µg/mL"}, {"measurement": "MIC", "setting": "[9]", "value": "1 to 2", "unit": "µg/mL"}, {"measurement": "MIC", "setting": "[10]", "value": "> 64", "unit": "µg/mL"}]}
{"compound": "N=C(N)NC(C(=O)N[C@H]1Cc2ccc(F)c(C(=O)O)c2OB1O)c1ncc(O)cc1F", "note": "(stereo partly drawn) [Example 52, (3R)-7-fluoro-3-(2-(3-fluoro-5-hydroxypyridin-2-yl)-2-guanidinoacetamido)-2-hydroxy-3,4-dihydro-2H-benzo[e][1,2]oxaborinine-8-carboxylic acid]", "values": [{"measurement": "MIC", "setting": "[1]", "value": "> 128", "unit": "µg/mL"}, {"measurement": "MIC", "setting": "[2]", "value": "> 128", "unit": "µg/mL"}, {"measurement": "MIC", "setting": "[3]", "value": "> 128", "unit": "µg/mL"}, {"measurement": "MIC", "setting": "[4]", "value": "> 128", "unit": "µg/mL"}, {"measurement": "MIC", "setting": "[5]", "value": "> 64", "unit": "µg/mL"}, {"measurement": "MIC", "setting": "[6]", "value": "> 64", "unit": "µg/mL"}, {"measurement": "MIC", "setting": "[7]", "value": "> 64", "unit": "µg/mL"}, {"measurement": "MIC", "setting": "[8]", "value": "> 64", "unit": "µg/mL"}, {"measurement": "MIC", "setting": "[9]", "value": "> 64", "unit": "µg/mL"}, {"measurement": "MIC", "setting": "[10]", "value": "> 64", "unit": "µg/mL"}]}
{"compound": "CCN1CCN(C(=O)NC(C(=O)N[C@H]2Cc3cccc(C(=O)O)c3OB2O)c2cc(O)ccc2O)C(=O)C1=O", "note": "(stereo partly drawn) [Example 77, (3R)-3-(2-(2,5-dihydroxyphenyl)-2-(4-ethyl-2,3-dioxopiperazine-1-carboxamido)acetamido)-2-hydroxy-3,4-dihydro-2H-benzo[e][1,2]oxaborinine-8-carboxylic acid]", "values": [{"measurement": "MIC", "setting": "[1]", "value": "> 128", "unit": "µg/mL"}, {"measurement": "MIC", "setting": "[2]", "value": "> 128", "unit": "µg/mL"}, {"measurement": "MIC", "setting": "[3]", "value": "8 to 16", "unit": "µg/mL"}, {"measurement": "MIC", "setting": "[4]", "value": "32 to 64", "unit": "µg/mL"}, {"measurement": "MIC", "setting": "[5]", "value": "> 64", "unit": "µg/mL"}, {"measurement": "MIC", "setting": "[6]", "value": "> 64", "unit": "µg/mL"}, {"measurement": "MIC", "setting": "[7]", "value": "16 to 32", "unit": "µg/mL"}, {"measurement": "MIC", "setting": "[8]", "value": "4 to 8", "unit": "µg/mL"}, {"measurement": "MIC", "setting": "[9]", "value": "16 to 32", "unit": "µg/mL"}, {"measurement": "MIC", "setting": "[10]", "value": "> 64", "unit": "µg/mL"}]}
{"compound": "CCN1CCN(C(=O)NC(C(=O)N[C@H]2Cc3cccc(C(=O)O)c3OB2O)c2ccc(O)c(N(S(C)(=O)=O)S(C)(=O)=O)c2)C(=O)C1=O", "note": "(stereo partly drawn) [Example 21, (3R)-3-(2-(4-ethyl-2,3-dioxopiperazine-1-carboxamido)-2-(4-hydroxy-3-(N-(methylsulfonyl)methylsulfonamido)phenyl)acetamido)-2-hydroxy-3,4-dihydro-2H-benzo[e][1,2]oxaborinine-8-carboxylic acid]", "values": [{"measurement": "MIC", "setting": "[1]", "value": "32 to 64", "unit": "µg/mL"}, {"measurement": "MIC", "setting": "[2]", "value": "> 128", "unit": "µg/mL"}, {"measurement": "MIC", "setting": "[3]", "value": "2 to 4", "unit": "µg/mL"}, {"measurement": "MIC", "setting": "[4]", "value": "2 to 4", "unit": "µg/mL"}, {"measurement": "MIC", "setting": "[5]", "value": "> 64", "unit": "µg/mL"}, {"measurement": "MIC", "setting": "[6]", "value": "> 64", "unit": "µg/mL"}, {"measurement": "MIC", "setting": "[7]", "value": "> 64", "unit": "µg/mL"}, {"measurement": "MIC", "setting": "[8]", "value": "4 to 8", "unit": "µg/mL"}, {"measurement": "MIC", "setting": "[9]", "value": "> 64", "unit": "µg/mL"}, {"measurement": "MIC", "setting": "[10]", "value": "> 64", "unit": "µg/mL"}]}
{"compound": "NS(=O)(=O)NC(C(=O)N[C@H]1Cc2cccc(C(=O)O)c2OB1O)c1ccc(C(=O)O)c(F)c1", "note": "(stereo partly drawn) [Example 44, (3R)-3-(2-(4-carboxy-3-fluorophenyl)-2-(sulfamoylamino)acetamido)-2-hydroxy-3,4-dihydro-2H-benzo[e][1,2]oxaborinine-8-carboxylic acid]", "values": [{"measurement": "MIC", "setting": "[1]", "value": "> 128", "unit": "µg/mL"}, {"measurement": "MIC", "setting": "[2]", "value": "> 128", "unit": "µg/mL"}, {"measurement": "MIC", "setting": "[3]", "value": "> 128", "unit": "µg/mL"}, {"measurement": "MIC", "setting": "[4]", "value": "> 128", "unit": "µg/mL"}, {"measurement": "MIC", "setting": "[5]", "value": "> 64", "unit": "µg/mL"}, {"measurement": "MIC", "setting": "[6]", "value": "> 64", "unit": "µg/mL"}, {"measurement": "MIC", "setting": "[7]", "value": "> 64", "unit": "µg/mL"}, {"measurement": "MIC", "setting": "[8]", "value": "> 64", "unit": "µg/mL"}, {"measurement": "MIC", "setting": "[9]", "value": "> 64", "unit": "µg/mL"}, {"measurement": "MIC", "setting": "[10]", "value": "> 64", "unit": "µg/mL"}]}
{"compound": "CCN1CCN(C(=O)NC(C(=O)N[C@H]2Cc3cccc(C(=O)O)c3OB2O)c2ccc(O)c(NC(C)=O)c2)C(=O)C1=O", "note": "(stereo partly drawn) [Example 17, (3R)-3-(2-(3-acetamido-4-hydroxyphenyl)-2-(4-ethyl-2,3-dioxopiperazine-1-carboxamido)acetamido)-2-hydroxy-3,4-dihydro-2H-benzo[e][1,2]oxaborinine-8-carboxylic acid]", "values": [{"measurement": "MIC", "setting": "[1]", "value": "8 to 16", "unit": "µg/mL"}, {"measurement": "MIC", "setting": "[2]", "value": "> 128", "unit": "µg/mL"}, {"measurement": "MIC", "setting": "[3]", "value": "2 to 4", "unit": "µg/mL"}, {"measurement": "MIC", "setting": "[4]", "value": "8 to 16", "unit": "µg/mL"}, {"measurement": "MIC", "setting": "[5]", "value": "> 64", "unit": "µg/mL"}, {"measurement": "MIC", "setting": "[6]", "value": "> 64", "unit": "µg/mL"}, {"measurement": "MIC", "setting": "[7]", "value": "> 64", "unit": "µg/mL"}, {"measurement": "MIC", "setting": "[8]", "value": "1 to 2", "unit": "µg/mL"}, {"measurement": "MIC", "setting": "[9]", "value": "> 64", "unit": "µg/mL"}, {"measurement": "MIC", "setting": "[10]", "value": "> 64", "unit": "µg/mL"}]}
